Measured values published in patent US20030032809A1, “Optimized procedures for the manufacture of paroxetine salts” (priority 2001, published 2003).

What was measured:
[1] = Solubility of paroxetine salts in water; type: physicochemical
[2] = prior-art statement; cited from earlier work

Substance: (−)-trans-4R-(4′-fluorophenyl)-3S-[(3′,4′-methylenedioxyphenyl)oxymethyl]piperidine acetate [paroxetine acetate]
- solubility ([1]; purified water, room temperature, purified paroxetine acetate): at least 1000 mg per one ml
- solubility in water (in words) ([1]; water): highly soluble in water
- water solubility (in words, background) [2]: excellent water solubility profile
